Reference: patent US12404345B2, “Humanized antibodies against iRHOM2” (SCIRHOM GMBH, priority 2021, dated 2025)

Key:
[1] = test system: PMA-induced release of endogenous IL-6R from human PBMCs from healthy donors; assay: ELISA-based IL-6R release assay, PMA-induced, PBMCs from healthy donors; assay type: cell-based; settings: PBMC, Batimastat 10 μM, PMA 25 ng/ml, 24 hours
Protocol: In the following study, ELISA-based IL-6R release assays were performed to analyze the inhibitory effects of the antibodies of the invention on PMA-induced release of endogenous IL-6R from primary human material obtained from healthy donors using peripheral blood mononuclear cells (PBMCs).
In brief, on day 1, Nunc black MaxiSorp® 96-well plates (Thermo Fisher Scientific, USA) were coated overnight with 100 μl per well of mouse anti-human IL-6R capture antibody (provided as part of the DuoSet ELISA kit) at 2 μg/ml TBS at 4° C. […]
Meanwhile, the 96-well plates were centrifuged to pellet cells. […] Using an infinite M1000 (Tecan Group, Switzerland) microplate reader, the fluorescence of each well was collected at an excitation wavelength of 435 nm and an emission wavelength of 555 nm.

[2] = target: T1, human iRhom2 variant hiR2-FL-K536A-T7 (Homo sapiens, UniProt Q6PJF5, K536A); assay: FACS epitope mapping on MEF-DKO-hiR2-FL-K536A-T7 cells; assay type: binding; settings: antibody at 3 μg/ml, compared with MEF-DKO-hiR2-FL-WT-T7 cells
T1 construct: expressed in transfected cells; host or cells: immortalized iRhom1/2-/- DKO mouse embryonic fibroblasts, pMSCV retroviral infection
T1 sequence (Q6PJF5 1-856 K536A): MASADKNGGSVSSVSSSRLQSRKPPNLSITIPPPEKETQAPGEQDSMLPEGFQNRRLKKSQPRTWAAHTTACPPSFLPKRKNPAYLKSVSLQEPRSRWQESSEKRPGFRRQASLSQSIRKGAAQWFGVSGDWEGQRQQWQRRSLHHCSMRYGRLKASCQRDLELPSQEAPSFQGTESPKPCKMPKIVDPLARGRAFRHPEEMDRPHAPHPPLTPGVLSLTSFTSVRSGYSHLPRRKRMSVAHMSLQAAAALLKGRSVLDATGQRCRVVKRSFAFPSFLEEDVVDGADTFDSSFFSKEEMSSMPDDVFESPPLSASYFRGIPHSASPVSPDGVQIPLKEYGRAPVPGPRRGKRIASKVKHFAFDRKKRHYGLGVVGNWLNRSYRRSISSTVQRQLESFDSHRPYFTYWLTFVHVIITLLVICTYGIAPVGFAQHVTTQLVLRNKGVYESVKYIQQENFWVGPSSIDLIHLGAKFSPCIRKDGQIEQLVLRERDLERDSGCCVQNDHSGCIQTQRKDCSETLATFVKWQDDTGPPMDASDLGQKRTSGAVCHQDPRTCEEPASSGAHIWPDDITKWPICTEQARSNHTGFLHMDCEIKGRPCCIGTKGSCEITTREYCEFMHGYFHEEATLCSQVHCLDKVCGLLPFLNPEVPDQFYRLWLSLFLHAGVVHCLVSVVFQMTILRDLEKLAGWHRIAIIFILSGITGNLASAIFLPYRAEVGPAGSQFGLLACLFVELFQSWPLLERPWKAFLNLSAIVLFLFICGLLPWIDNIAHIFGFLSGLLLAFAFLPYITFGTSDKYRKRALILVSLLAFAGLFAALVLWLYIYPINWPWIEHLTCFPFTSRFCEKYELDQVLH
Description: This example describes the generation of iRhom1/2−/− DKO MEF populations expressing the 137 single amino acid substitution or deletion variants as well as their characterization in terms of cell surface localization and functional activity as indicators of proper protein conformation. Subsequently, binding analyses of the humanized antibodies 16-B-03, 16-B-05, 16-B-07, 23-B-04, 42-B-02 and 42-B-04 of the invention on the entire panel of 137 engineered MEF populations expressing human iRhom2 variants with single amino acid substitutions or deletions are described.
In brief, on day 1, Phoenix-ECO cells (American Type Culture Collection, USA) were seeded on 6-well tissue culture plates (Greiner, Germany) in standard growth medium at 8×10^5 cells per well and kept overnight at 37° C., 5% CO2. On day 2, the medium was replaced by fresh medium supplemented with chloroquine (Sigma-Aldrich, USA) at a final concentration of 25 μM. […]

In the case of `CNC(=O)[C@H](Cc1ccccc1)NC(=O)[C@H](CC(C)C)[C@H](CSc1cccs1)C(=O)NO` [Batimastat], the inhibition at 10 µM [1] is reported as 96.2%.

B1: 42-B-02: humanized antibody binding human iRhom2; HCVD SEQ ID NO 33, LCVD SEQ ID NO 37 (antibody, V domains shown)
VH: QVTLRESGPALVKPTQTLTLTCTFSGFSLSTFGRGVGWIRQPPGKALEWLAHIWWDDEKYYNSALKSRLTISKDTSKNQVVLTITNMDPVDTATYYCARIQNYGSNYWYFDVWGQGTLVTVSS
VL: AIQLTQSPSSLSASVGDRVTITCRASSRISYMFWYQQKPGKAPKVLIYDTSNLASGVPSRFSGSGSGTDYTLTISSLQPEDFATYYCQQWNSYPLTFGQGTKLEIK
modifications: antibody sequences
For B1, the “effect of substitution of lysine 536 of human iRhom2 by alanine on antibody binding (MEF-DKO-hiR2-FL-K536A-T7 cells)” value [2] was “strongly impairs”.
